Results as given in patent US12678511B2, “Peptide and use thereof” (Kansai Medical University Educational Corgoration, priority 2019, dated 2026).
Peptide text beside a SMILES is read from it. * marks the point of attachment. 5FAM = O=C1OC2(c3ccc(O)cc3Oc3cc(O)ccc32)c2ccc(C(=O)*)cc21

Tests used:
[1] = system: cancer stroma (fibrous stroma) of tumor tissue, BxPC3 cells and hMSC transplanted; test: Selective absorption in scirrhous pancreatic cancer model mouse (tissue analysis); assay type: in vivo; settings: 200 μg intravenous, 30 minutes after injection, FIG. 7B, 7C
Text: A scirrhous pancreatic cancer model mouse having scirrhous carcinoma that forms abundant cancer stroma was produced in accordance with the method disclosed in Reference Document 1 (Saito K et al., “Stromal mesenchymal stem cells facilitate pancreatic cancer progression by regulating specific secretory molecules through mutual cellular interaction.”, Journal of Cancer, Vol. 9, No. 16, pp. 2916-2929, 2018). Specifically, 6-week old NOD/SCID mice (CLEA Japan Inc., Japan) were raised under pathogen-free conditions. A cell mixture containing BxPC3 cells (1×10^5 cells) and hMSC (1×10^5 cells) was injected either subcutaneously or into the abdominal cavity of each mouse. By raising the mice for 6 weeks from the time of cell injection, scirrhous pancreatic cancer model mice were obtained having an abundantly developed cancer stroma that imitates the tissue in a human pancreatic cancer patient (see FIG. 7A).
[FAM]-tandem MSCPP106 (200 μg) was injected intravenously into each obtained scirrhous carcinoma model mouse. Subsequently, the pharmacokinetics of the peptide 30 minutes after the intravenous injection were analyzed by tissue analysis of the freshly dissected specimen of the peptide-administered mouse. FIG. 7B is a series of bright-field images (left) and fluorescent images (right) of various tissues and tumor tissues resected from the scirrhous carcinoma model mouse. […]

[2] = system: cancer stroma of the stomach scirrhous carcinoma (HSC58 cells and hMSC); test: Absorption into cancer stroma of scirrhous stomach cancer mouse model; assay type: in vivo; settings: 300 μg intravenous, 60 minutes after injection, FIG. 10B
Text: Stomach poorly differentiated scirrhous adenocarcinoma, which is an example of a typical scirrhous carcinoma, is classified by visual classification into type 4 stomach cancer, and this type 4 stomach cancer has an extremely poor prognosis, with a five-year survival rate of about at least 4% but not more than 16%. Accordingly, in order to investigate the application of [FAM]-tandem MSCPP106 to the CAF that develop in the scirrhous stroma of cancer other than pancreatic cancer, a scirrhous stomach cancer mouse transplanted model was produced, and the absorption into scirrhous cancer stroma other than pancreatic cancer was investigated. With the exceptions of using human stomach poorly differentiated adenocarcinoma HSC58 cells instead of the BxPC3 cells, and rearing the mouse for 40 days from the time of cell injection, the same method as Example 7 was used to obtain a scirrhous stomach cancer mouse model. The HSC58 cells are a low metastatic human scirrhous stomach cancer cell line. Subsequently, [FAM]-tandem MSCPP106 (300 μg) was injected intravenously into the obtained scirrhous cancer mouse model, and the in-vivo absorption pharmacokinetics of the peptide 60 minutes after the intravenous injection were analyzed by tissue analysis of the freshly dissected specimen of the peptide-administered mouse. […]

CC(C)C[C@H](NC(=O)[C@H](Cc1c[nH]cn1)NC(=O)[C@H](CCCNC(=N)N)NC(=O)[C@H](Cc1ccccc1)NC(=O)[C@H](CC(C)C)NC(=O)[C@H](CCC(=O)O)NC(=O)[C@H](C)NC(=O)[C@H](CS)NC(=O)[C@H](CCCCN)NC(=O)CNC(=O)[C@H](CC(C)C)NC(=O)[C@H](Cc1c[nH]cn1)NC(=O)[C@H](CCCNC(=N)N)NC(=O)[C@H](Cc1ccccc1)NC(=O)[C@H](CC(C)C)NC(=O)[C@H](CCC(=O)O)NC(=O)[C@H](C)NC(=O)[C@H](CS)NC(=O)[C@H](CCCCN)NC(=O)c1ccc2c(c1)C(=O)OC21c2ccc(O)cc2Oc2cc(O)ccc21)C(=O)O [[FAM]-tandem MSCPP106] (5FAM-KCAELFRHLGKCAELFRHL-OH)
absorption into the cancer stroma (fibrous stroma) inside tumor tissue [1]: strong absorption | absorption into the cancer stroma of the stomach scirrhous carcinoma [2]: strong selective absorption
